In ChEMBL document CHEMBL3885881, “DrugMatrix”:

Species: Rattus norvegicus
Assay: DrugMatrix - Regimen: Daily Repeat
Assay type: toxicity, organism-based, Sprague-Dawley
Parameters: regimen Daily Repeat, gender Male, age 6-8 weeks
Conditions: in vivo, po, route oral GAVAGE, vehicle 100 % WATER; for ABSOLUTE BASOPHIL / ABSOLUTE EOSINOPHIL / ABSOLUTE LYMPHOCYTE / ABSOLUTE MONOCYTE / ABSOLUTE SEGMENTED NEUTROPHIL / BASOPHIL / EOSINOPHIL / ERYTHROCYTE COUNT / HEMATOCRIT / HEMOGLOBIN / LEUKOCYTE COUNT / LYMPHOCYTE / MEAN CORPUSCULAR HEMOGLOBIN / MEAN CORPUSCULAR HEMOGLOBIN CONCENTRATION / MEAN CORPUSCULAR VOLUME / MONOCYTE / NEUTROPHIL / NUCLEATED RED BLOOD CELLS: tissue Blood; for ALANINE AMINOTRANSFERASE / ALKALINE PHOSPHATASE / ASPARTATE AMINOTRANSFERASE / BLOOD UREA NITROGEN / CARBON DIOXIDE / CHLORIDE / CHOLESTEROL / CREATINE PHOSPHOKINASE / CREATININE / GLUCOSE / LACTATE DEHYDROGENASE / LIPASE / PHOSPHORUS / POTASSIUM / SODIUM / TOTAL BILIRUBIN / TOTAL PROTEIN / URIC ACID: tissue Plasma
[1] = 0 mg/kg, 72 h, dose level Control, time 3 day
[2] = 0 mg/kg, 120 h, dose level Control, time 5 day
[3] = 18 mg/kg, 72 h, dose level Low, time 3 day

CN(C)CCCN1c2ccccc2Sc2ccc(Cl)cc21 [CHLORPROMAZINE]
ABSOLUTE BASOPHIL [1]: 0 CELLS/uL | ABSOLUTE EOSINOPHIL [1]: 108.67 CELLS/uL | ABSOLUTE LYMPHOCYTE [1]: 10696 CELLS/uL | ABSOLUTE MONOCYTE [1]: 216.67 CELLS/uL | ABSOLUTE SEGMENTED NEUTROPHIL [1]: 1045.33 CELLS/uL | BASOPHIL [1]: 0% | EOSINOPHIL [1]: 1% | ERYTHROCYTE COUNT [1]: 5.87 x10E6/uL | HEMATOCRIT [1]: 38.5% | HEMOGLOBIN [1]: 13.6 G/DL | LEUKOCYTE COUNT [1]: 12.07 x10E3/uL | LYMPHOCYTE [1]: 88.33% | MEAN CORPUSCULAR HEMOGLOBIN [1]: 23.47 pg | MEAN CORPUSCULAR HEMOGLOBIN CONCENTRATION [1]: 35.7 G/DL | MEAN CORPUSCULAR VOLUME [1]: 65.63 fL | MONOCYTE [1]: 2% | NEUTROPHIL [1]: 8.67% | NUCLEATED RED BLOOD CELLS [1]: 0 /100WBC | ALANINE AMINOTRANSFERASE [1]: 60.67 u/L | ALKALINE PHOSPHATASE [1]: 377.67 u/L | ASPARTATE AMINOTRANSFERASE [1]: 85.33 u/L | BLOOD UREA NITROGEN [1]: 15 mg/dL | CARBON DIOXIDE [1]: 37 mmol/L | CHLORIDE [1]: 97.67 MEQ/L | CHOLESTEROL [1]: 70.67 mg/dL | CREATINE PHOSPHOKINASE [1]: 361.67 u/L | CREATININE [1]: 0.18 mg/dL | GLUCOSE [1]: 154 mg/dL | LACTATE DEHYDROGENASE [1]: 99 u/L | LIPASE [1]: 12.67 u/L | PHOSPHORUS [1]: 9.53 mg/dL | POTASSIUM [1]: 5.55 MEQ/L | SODIUM [1]: 143.1 MEQ/L | TOTAL BILIRUBIN [1]: 0.2 mg/dL | TOTAL PROTEIN [1]: 5.97 G/DL | URIC ACID [1]: 0.77 mg/dL | ABSOLUTE BASOPHIL [2]: 0 CELLS/uL | ABSOLUTE EOSINOPHIL [2]: 0 CELLS/uL | ABSOLUTE LYMPHOCYTE [2]: 9535 CELLS/uL | ABSOLUTE MONOCYTE [2]: 182 CELLS/uL | ABSOLUTE SEGMENTED NEUTROPHIL [2]: 783 CELLS/uL | BASOPHIL [2]: 0% | EOSINOPHIL [2]: 0% | ERYTHROCYTE COUNT [2]: 5.35 x10E6/uL | HEMATOCRIT [2]: 34.17% | HEMOGLOBIN [2]: 13.17 G/DL | LEUKOCYTE COUNT [2]: 10.5 x10E3/uL | LYMPHOCYTE [2]: 89.67% | MEAN CORPUSCULAR HEMOGLOBIN [2]: 24.67 pg | MEAN CORPUSCULAR HEMOGLOBIN CONCENTRATION [2]: 38.57 G/DL | MEAN CORPUSCULAR VOLUME [2]: 63.9 fL | MONOCYTE [2]: 1.67% | NEUTROPHIL [2]: 8.67% | NUCLEATED RED BLOOD CELLS [2]: 0 /100WBC | ALANINE AMINOTRANSFERASE [2]: 46.67 u/L | ALKALINE PHOSPHATASE [2]: 343.67 u/L | ASPARTATE AMINOTRANSFERASE [2]: 71 u/L | BLOOD UREA NITROGEN [2]: 11.67 mg/dL | CARBON DIOXIDE [2]: 27 mmol/L | CHLORIDE [2]: 105.33 MEQ/L | CHOLESTEROL [2]: 70.67 mg/dL | CREATINE PHOSPHOKINASE [2]: 208.67 u/L | CREATININE [2]: 0.1 mg/dL | GLUCOSE [2]: 161.33 mg/dL | LACTATE DEHYDROGENASE [2]: 58 u/L | LIPASE [2]: 9.33 u/L | PHOSPHORUS [2]: 12.7 mg/dL | POTASSIUM [2]: 5.59 MEQ/L | SODIUM [2]: 147.1 MEQ/L | TOTAL BILIRUBIN [2]: 0.17 mg/dL | TOTAL PROTEIN [2]: 5.97 G/DL | URIC ACID [2]: 0.73 mg/dL | ABSOLUTE BASOPHIL [3]: 0 CELLS/uL | ABSOLUTE EOSINOPHIL [3]: 0 CELLS/uL | ABSOLUTE LYMPHOCYTE [3]: 8093.33 CELLS/uL | ABSOLUTE MONOCYTE [3]: 80.67 CELLS/uL | ABSOLUTE SEGMENTED NEUTROPHIL [3]: 392.67 CELLS/uL | BASOPHIL [3]: 0% | EOSINOPHIL [3]: 0% | ERYTHROCYTE COUNT [3]: 5.16 x10E6/uL | HEMATOCRIT [3]: 34.47% | HEMOGLOBIN [3]: 13.4 G/DL | LEUKOCYTE COUNT [3]: 8.57 x10E3/uL | LYMPHOCYTE [3]: 94.33% | MEAN CORPUSCULAR HEMOGLOBIN [3]: 25.97 pg | MEAN CORPUSCULAR HEMOGLOBIN CONCENTRATION [3]: 38.87 G/DL | MEAN CORPUSCULAR VOLUME [3]: 66.8 fL | MONOCYTE [3]: 1% | NEUTROPHIL [3]: 4.67% | NUCLEATED RED BLOOD CELLS [3]: 0 /100WBC | ALANINE AMINOTRANSFERASE [3]: 60.67 u/L | ALKALINE PHOSPHATASE [3]: 286 u/L | ASPARTATE AMINOTRANSFERASE [3]: 101 u/L | BLOOD UREA NITROGEN [3]: 15 mg/dL | CARBON DIOXIDE [3]: 38 mmol/L | CHLORIDE [3]: 98 MEQ/L | CHOLESTEROL [3]: 65.67 mg/dL | CREATINE PHOSPHOKINASE [3]: 499.33 u/L | CREATININE [3]: 0.32 mg/dL | GLUCOSE [3]: 131 mg/dL | LACTATE DEHYDROGENASE [3]: 79 u/L | LIPASE [3]: 10 u/L | PHOSPHORUS [3]: 8.37 mg/dL | POTASSIUM [3]: 5.57 MEQ/L | SODIUM [3]: 142.3 MEQ/L | TOTAL BILIRUBIN [3]: 0.23 mg/dL | TOTAL PROTEIN [3]: 5.97 G/DL
